# Results reported in PMC10046692 (Cancers, 2023).
# What was measured:
# RWPE-1 cells = type: cell-based
# Description: (§1) The effect of the treatments on prostate cancer and normal prostate epithelial cells’ (LNCaP, 22Rv1, C4-2B, PC3, and RWPE1) viability was evaluated using the Alamar blue assay. Cells were seeded into 96-well plates, and after growing to 60–75% confluency, they were treated with vehicle control (DMSO, Sigma Aldrich, St. Louis, MO, USA) or various concentrations of SBI-46 in respective media for 24 h. At the termination of exposure, cells were incubated with 100 μL of 3% Alamar Blue solution in a complete growth medium at 37 °C for 2 h. Absorbance was measured, and data were analyzed following the manufacturer’s instructions (Life Technologies Corporation, Eugene, OR, USA).
# VERO cells = experiment: cells; type: cell-based
# Description: (§2) Human PCa cells (LNCaP and 22Rv1) and normal prostate epithelial (RWPE-1) and kidney (HEK-293 and VERO) cells were obtained from American […] (ATCC, Manassas, VA, USA). C4-2B was obtained from the ViroMed Laboratories (Minneapolis, MN). The cells were grown on a specified medium previously described. Dihydrotestosterone (DHT) (1 nM) (Cerilliant, TX, USA) studies were performed in phenol red-free RPMI1640 supplemented with 10% charcoal-stripped FBS (Gemini, West Sacramento, CA, USA).
# HEK-293 cells = experiment: cells; type: cell-based
# Description: as §2
# C4-2B cells [1] = experiment: Annexin V-FITC / PI apoptosis assay; type: cell-based, human; conditions: p = 0.01
# Text: As previously described, apoptosis was detected using the annexin V-fluorescein isothiocyanate (FITC) versus propidium iodide (PI) assay (FITC Annexin V Apoptosis Detection Kit I, BD Pharminogen).
# HDAC6 = target: T1, HDAC6 (Homo sapiens, UniProt Q9UBN7); experiment: HDAC inhibition, fluorescence-based assay (BPS Bioscience); type: biochemical; conditions: HDAC6 versus HDAC1
# T1 construct: purchased BPS Bioscience (contract research organization that ran the assay)
# T1 sequence (Q9UBN7 1-1215): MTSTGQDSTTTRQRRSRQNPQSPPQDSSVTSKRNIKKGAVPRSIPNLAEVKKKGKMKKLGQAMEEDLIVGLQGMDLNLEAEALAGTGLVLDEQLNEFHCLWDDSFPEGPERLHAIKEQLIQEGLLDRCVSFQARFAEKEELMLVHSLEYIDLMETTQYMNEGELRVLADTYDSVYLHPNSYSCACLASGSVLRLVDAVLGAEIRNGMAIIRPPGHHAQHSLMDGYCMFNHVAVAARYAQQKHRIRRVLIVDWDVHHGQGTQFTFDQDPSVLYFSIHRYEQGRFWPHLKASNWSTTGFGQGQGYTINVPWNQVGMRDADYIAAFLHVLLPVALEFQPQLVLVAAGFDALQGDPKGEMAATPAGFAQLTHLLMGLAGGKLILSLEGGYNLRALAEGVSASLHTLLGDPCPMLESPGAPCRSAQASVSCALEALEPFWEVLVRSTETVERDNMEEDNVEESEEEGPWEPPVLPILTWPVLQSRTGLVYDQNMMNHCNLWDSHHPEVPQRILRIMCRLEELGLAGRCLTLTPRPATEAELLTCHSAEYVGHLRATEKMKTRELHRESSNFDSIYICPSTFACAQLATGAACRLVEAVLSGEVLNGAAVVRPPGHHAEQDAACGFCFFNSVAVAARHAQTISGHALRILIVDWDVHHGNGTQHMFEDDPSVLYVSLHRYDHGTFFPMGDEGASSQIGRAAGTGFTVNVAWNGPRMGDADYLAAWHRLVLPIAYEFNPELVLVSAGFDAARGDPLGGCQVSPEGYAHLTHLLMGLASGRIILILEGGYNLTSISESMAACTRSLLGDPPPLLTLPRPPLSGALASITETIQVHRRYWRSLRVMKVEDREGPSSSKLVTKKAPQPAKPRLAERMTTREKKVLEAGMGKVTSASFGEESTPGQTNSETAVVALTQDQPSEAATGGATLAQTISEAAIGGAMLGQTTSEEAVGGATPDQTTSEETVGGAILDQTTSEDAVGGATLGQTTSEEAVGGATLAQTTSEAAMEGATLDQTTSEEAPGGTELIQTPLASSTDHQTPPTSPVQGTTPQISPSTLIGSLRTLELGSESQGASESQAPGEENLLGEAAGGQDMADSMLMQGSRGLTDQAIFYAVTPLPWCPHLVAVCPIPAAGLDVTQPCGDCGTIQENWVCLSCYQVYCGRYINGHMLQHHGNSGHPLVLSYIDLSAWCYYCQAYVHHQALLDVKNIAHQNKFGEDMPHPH
# Description: In vitro HDAC inhibition was performed by the contract research organization (CRO) BPS Bioscience while an AR-binding assay was performed by Eurofins Panlabs. (St. Charles, MO, USA). These assays were performed through contract agreements with these CROs.
# C4-2B cells [2] = experiment: Cell viability, Alamar blue assay; type: cell-based; conditions: Homo sapiens; treated for 24 h; read-out: growth inhibition IC50, C4-2B
# Description: as §1
# 22Rv1 cells [3] = experiment: Cell viability, Alamar blue assay; type: cell-based; conditions: Homo sapiens, treated for 24 h, read-out: growth inhibition IC50, 22Rv1
# Description: as §1
# LNCaP cells [4] = experiment: Cell viability, Alamar blue assay; type: cell-based; conditions: Homo sapiens, treated for 24 h, read-out: growth inhibition IC50, LNCaP
# Description: as §1
# PC-3 cells = experiment: Cell viability, Alamar blue assay; type: cell-based; conditions: treated for 24 h
# Description: as §1
# [5] = tested on: acetylated H4 and tubulin in LNCaP cells; experiment: Western blot of H4 and tubulin acetylation (intracellular HDAC inhibition); type: cell-based, Human; conditions: 0.5 and 5 µM, 6 h
# Description: To probe H4 and tubulin acetylation status, LNCaP cells were seeded into a 6-well plate at 1 × 10^6/well in RPMI for 24–48 h until the confluency reached 80%. […] Cells were treated for 6 h and scraped out of the well. The cells were washed with cold PBS three times and lysed with RIPA buffer (110 μL) (VWR, VWRVN653—100 mL) containing phosphatase inhibitor (Fisher Thermo, A32957, Waltham, MA, USA) and protease inhibitor (Fisher Thermo, A32955). The cell lysates were vortexed for 15 s, followed by sonication for 90 s. The lysates were then centrifuged at 14,000 rpm for 10 min, and the supernatants were collected. The total protein concentration was determined using a BCA protein assay kit (BioVision, K813-2500, Milpitas, CA, USA). Based on the results from the BCA assay, the lysates were diluted to make an equal protein concentration, and 20 μg of each lysate was loaded to each well of the TGX MIDI 4–20% gel (Biorad, cat. 5671093, Hercules, CA, USA) and ran at 150 V for 70 min. […]
# 22Rv1 xenograft tumors = experiment: Subcutaneous xenograft study in nude mice; type: in vivo; conditions: 20 mg/kg b.w. orally, five days/week for four weeks
# Description: (§3) All animals were maintained in germ-free environments, and the study was carried out per IACUC guidelines that the University of Louisville authorized. Athymic nude Balb/c mice (nu/nu) were obtained from The Jackson Laboratory at 6 weeks of age. C4-2B and 22Rv1 cells (1–1.5 × 10^6, approximately) were injected into separate flanks of the mice (n = 6) for subcutaneous tumor xenograft studies using a final volume of 100 μL of phosphate-buffered saline and Matrigel (1:1). Once the tumors reached ~50–100 mm^3, the mice were randomly divided into two groups; one group received a vehicle and the other groups received SB1-46 (20 mg/kg) orally for […] for 4 weeks. Mice were monitored twice weekly, and tumor volumes were measured once a week.
# (§4) Finally, in a nude mice model, we evaluated the efficacy of orally administered SBI-46 in xenograft tumors from 22Rv1 and C4-2B cells. Athymic BALB/c nude mice were subcutaneously injected with 22Rv1 and C4-2B (1 × 10^6 cells), and when the tumors reached 50–100 mm^3, either the vehicle or SBI-46 (20 mg/kg b.w.) were given orally for five days/week for four weeks.
# C4-2B xenograft tumors = experiment: Subcutaneous xenograft study in nude mice; type: in vivo; conditions: 20 mg/kg b.w. orally, five days/week for four weeks
# Description: as §3, §4
# [6] = tested on: AR-FL, AR-V7 and PSA expression in CRPC cells; experiment: Western blot of AR-FL, AR-V7 and PSA expression; type: cell-based, Human
# C4-2B cells [7] = experiment: Soft agar colony formation assay; type: cell-based, human; conditions: p = 0.001
# Text: (§5) The CytoSelectTM 96-well In Vitro Tumor Sensitivity Assay Kit was used to perform the colony formation assay to detect anchorage-independent growth (Cell Biolabs, Inc., San Diego, CA, USA). LNCaP, C4-2B, and 22Rv1 cells (5 × 10^3 cells) that had been exposed to either the vehicle or SBI-46 were harvested and used for the assay following the manufacturer’s instructions. Colonies were manually counted after being stained with 0.005% crystal violet after ten days.
# 22Rv1 cells [8] = experiment: Soft agar colony formation assay; type: cell-based, Human; conditions: p = 0.001
# Text: as §5
# LNCaP cells [9] = experiment: Soft agar colony formation assay; type: cell-based, Human; conditions: p = 0.001
# Text: as §5
# [10] = Toxicity observation in xenograft study; type: in vivo; conditions: xenograft nude mice, 20 mg/kg orally
# Description: as §3
# It has been reported that the inhibition of AR-mediated survival signaling by small molecules results in either cell cycle arrest or the induction of apoptosis in CRPC cells. Our studies also observed the induction of pro-apoptotic machinery and concomitant downregulation of pro-survival signaling in SBI-46-treated CRPC cells.
smiles,measurement,setting,value
CC1(C)C(=O)N(c2ccc(C#N)c(C(F)(F)F)c2)C(=O)N1Cc1ccc(-c2cn(CCCCCCCC(=O)NO)nn2)cc1F [SBI-46],toxicity in normal prostate epithelial cell line RWPE-1,RWPE-1 cells,no significant toxicity
same,toxicity in kidney cell line VERO,VERO cells,no significant toxicity
same,IC50,"VERO cells; Chlorocebus sabaeus, Vero, Figure 1B",40 ± 4.57 µM
same,toxicity in kidney cell line HEK-293,HEK-293 cells,no significant toxicity
same,IC50,"HEK-293 cells; Homo sapiens, HEK293, Figure 1B",16.4 ± 2.22 µM
same,induction of apoptosis (annexin V-FITC staining),C4-2B cells [1],18%
same,selectivity for HDAC6,HDAC6,~ 4 fold
same,IC50,C4-2B cells [2],480 nM
same,IC50,22Rv1 cells [3],560 nM
same,IC50,LNCaP cells [4],500 nM
same,effect on viability of AR-null PC-3 cells,PC-3 cells,not effective
same,acetylation status of H4 and α-tubulin,[5],dose-dependent upregulation of acetylated H4 and tubulin
same,"tumor volume and weight, 22Rv1 xenograft",22Rv1 xenograft tumors,significant decrease
same,"tumor volume and weight, C4-2B xenograft",C4-2B xenograft tumors,significant decrease
same,expressions of AR-FL and AR-V7,[6],downregulated
same,"colony-forming ability, C4-2B",C4-2B cells [7],reduced the colony-forming ability
same,"colony-forming ability, 22Rv1",22Rv1 cells [8],reduced the colony-forming ability
same,"colony-forming ability, LNCaP",LNCaP cells [9],reduced the colony-forming ability
same,"toxicity in vivo, gross pathological examination of vital organs",[10],not toxic
